From US20020155443A1, “Metal binding DNA interactive compounds” (priority 2000, published 2002)

Experiments:
Assay type in all cases: cell-based
MALME-3M = experiment: DTP Human Tumor Cell Line Screen, sulforhodamine B assay; conditions: Melanoma, 48 h
Experimental: (§1) The growth inhibitory activity of propargylic sulfone 3.2 against a wide range of human cancer cell lines was determined calorimetrically with sulforhodamine B assay conducted by the National Cancer Institute of the National Institutes of Health.
(§2) The in vitro cytotoxicity of compounds 2.47, 2.48 and 3.2 were investigated using the DTP Human Tumor Cell Line Screen. The concept, rationale and history of development of the DTP Human Tumor Cell Line Screen were described by Boyd (1993;1997)^8.4, 8.6 and Boyd and Paull (1995)^8.5. Further technical details of the NCI screening procedures were described (Monks, et. al.)^8.2 as were the origins and processing of the cell lines (Alley, et. al., Shoemaker, et. al., Stinson, et. al.). Briefly, cell suspensions that were diluted according to the particular cell type and the expected target cell density (5000-40,000 cells per well based on cell growth characteristics) were added by pipet (100 μL) into 96-well microtiter plates. Inoculates were allowed a preincubation period of 24 h at 37° C. for stabilization. Dilutions at twice the intended test concentration were added at time zero in 100-μL aliquots to the microtiter plate wells. Usually, test compounds were evaluated at five 10-fold dilutions. In routine testing, the highest well concentration is 10E-4 M, but for the standard agents the highest well concentration used depended on the agent. Incubations lasted for 48 h in 5% CO2 atmosphere and 100% humidity. The cells were assayed by using the sulforhodamine B assay (Rubinstein, et. al., Skehan, et. al.). A plate reader was used to read the optical densities, and a microcomputer processed the optical densities into the special concentration parameters.

UACC-62 = experiment: as above; conditions: Melanoma, 48 h
Experimental: as §1, §2

NCI-H322M = experiment: as above; conditions: Non-Small Cell Lung Cancer, 48 h
Experimental: as §1, §2

CAKI-1 = experiment: as above; conditions: Renal Cancer, 48 h
Experimental: as §1, §2

BT-549 = experiment: as above; conditions: Breast Cancer, 48 h
Experimental: as §1, §2

M14 = experiment: as above; conditions: Melanoma, 48 h
Experimental: as §1, §2

UACC-257 = experiment: as above; conditions: Melanoma, 48 h
Experimental: as §1, §2

MDA-MB-231/ATCC = experiment: as above; conditions: Breast Cancer, 48 h
Experimental: as §1, §2

HCC-2998 = experiment: as above; conditions: Colon Cancer, 48 h
Experimental: as §1, §2

A-549/ATCC = experiment: as above; conditions: 48 h
Experimental: as §1, §2

KM12 = experiment: as above; conditions: Colon Cancer, 48 h
Experimental: as §1, §2

SR = experiment: as above; conditions: Leukemia, 48 h
Experimental: as §1, §2

A498 = experiment: as above; conditions: Renal Cancer, 48 h
Experimental: as §1, §2

IGROV1 = experiment: as above; conditions: 48 h
Experimental: as §1, §2

RPMI-8226 = experiment: as above; conditions: Leukemia, 48 h
Experimental: as §1, §2

RXF 393 = experiment: as above; conditions: Renal Cancer, 48 h
Experimental: as §1, §2

T-47D = experiment: as above; conditions: Breast Cancer, 48 h
Experimental: as §1, §2

SK-MEL-28 = experiment: as above; conditions: Melanoma, 48 h
Experimental: as §1, §2

HT29 = experiment: as above; conditions: 48 h
Experimental: as §1, §2

[1] = system: B16 murine melanoma cells; experiment: Growth inhibition of B16 murine melanoma cells, MTT assay; conditions: B16 melanoma cells; read-out: IC50, growth inhibition
Experimental: The growth inhibitory activities of bis(propargylic) sulfone crown ethers 2.47 and 2.48 against B16 murine melanoma cells were determined calorimetrically with an MTT assay conducted by the Institute for Drug Development at the Cancer Research and Therapy Center in San Antonio, Tex.

| SMILES | IC50 (MALME-3M) [µM] | IC50 (UACC-62) [µM] | IC50 (NCI-H322M) [µM] | IC50 (CAKI-1) [µM] | IC50 (BT-549) [µM] | IC50 (UACC-257) [µM] | IC50 (MDA-MB-231/ATCC) [µM] | IC50 (HCC-2998) [µM] | IC50 (A-549/ATCC; Non-Small Cell Lung Cancer) [µM] | IC50 (KM12) [µM] | IC50 (SR) [µM] | IC50 (A498) [µM] | IC50 (IGROV1; Ovarian Cancer) [µM] | IC50 (RXF 393) [µM] | IC50 (T-47D) [µM] | IC50 (SK-MEL-28) [µM] | IC50 (HT29; Colon Cancer) [µM] | IC50 [1] [µM] | also measured |
| --- | --- | --- | --- | --- | --- | --- | --- | --- | --- | --- | --- | --- | --- | --- | --- | --- | --- | --- | --- |
| O=S1(=O)CC#CCOCCOCCOCCOCCOCCOCCOCC#CC1 [Compound 2.48] | 14.6 | 17.1 | 32.3 | 21.2 | 20 | 21.2 | 23.5 | 17.7 | 61.7 | 20.7 | 18.9 | 54.7 | 44.6 | 27 | 24.5 | 17.9 | 18.7 | 44.7 | IC50 (M14): 16.9 µM; IC50 (RPMI-8226): 17.4 µM |
| O=S1(=O)CC#CCOCCOCCOCCOCCOCCOCC#CC1 [Compound 2.47] | 2.7 | 0.28 | 17.5 | 12.2 | 14.1 | 11.6 | 20 | 19.1 | 20.2 | 16.2 | 8.2 | 16.9 | 16.3 | 15.1 | 20.6 | 18.9 | 13.8 | 54.2 | – |
| O=C(OCC1COCCOCCOCCOCCO1)c1ccc(CS(=O)(=O)CC#CCO)cc1 (centres unmarked) [Compound 3.2] | – | – | – | – | – | – | – | – | – | – | – | – | – | – | – | – | – | – | IC50 (MALME-3M; Homo sapiens): > 100 µM; IC50 (UACC-62; Homo sapiens): 82.4 µM; IC50 (NCI-H322M; Homo sapiens): 34.3 µM; IC50 (CAKI-1; Homo sapiens): > 100 µM; IC50 (BT-549; Homo sapiens): > 100 µM; IC50 (M14; Homo sapiens): > 100 µM; IC50 (UACC-257; Homo sapiens): > 100 µM; IC50 (MDA-MB-231/ATCC; Homo sapiens): > 100 µM; IC50 (HCC-2998; Homo sapiens): > 100 µM; IC50 (A-549/ATCC; Homo sapiens, A549, Non-Small Cell Lung Cancer): > 100 µM; IC50 (KM12; Homo sapiens): > 100 µM; IC50 (SR; Homo sapiens): > 100 µM; IC50 (A498; Homo sapiens): > 100 µM; IC50 (IGROV1; Homo sapiens, IGROV-1, Ovarian Cancer): > 100 µM; IC50 (RPMI-8226; Homo sapiens): 8.4 µM; IC50 (RXF 393; Homo sapiens): > 100 µM; IC50 (SK-MEL-28; Homo sapiens): > 100 µM; IC50 (HT29; Homo sapiens, HT-29, Colon Cancer): > 100 µM |
